The subject of data set [1] is cholinergic neurons. The experiment in a line: Temporal pattern of distribution in mouse brain, 4 to 24 h (FIGS. 3 and 4). In kind it is in vivo, female CD-1 mice.
A short description of data set [2]: Physiological activity of the enantiomers.
The subject of data set [3] is cholinergic neurons. The experiment in a line: Tissue distribution of radiotracer in mouse brain and tissues 4 h after intravenous injection (Example 9, Table II). To be noted: 4 h after i.v. injection.
Data set [4] deals with cholinergic neurons. The experiment in a line: Blocking of tracer accumulation by pretreatment with unlabeled (-)-vesamicol. To be noted: i.p.
The test system of data set [5] is striatum. The experiment in a line: In vivo autoradiography in rat. The settings on record: 90 min after i.v. injection. As for the experimental part: injection. Controls received an equal volume of vehicle. In vivo
autoradiography in rat 90 min after i.v. injection of 5[^125 I]IBVM

A short description of data set [6]: in vivo. To be noted: mouse, iv.
Data set [7] deals with central cholinergic neurons. The experiment in a line: Brain distribution of 5-[125I]iodobenzovesamicol in mice, control and blocked (Example 10, Table III). In kind it is in vivo, CD-1 mice. On the procedure:
(§1) Radioactive compound 13 as prepared above in Example 1 was dissolved in ethanol/0.005M sodium acetate (1/9) buffer (pH 4.5) at 1 mCi/ml and 10 μCi of the solution was administered intravenously to lightly etherized CD-1 mice. Animals were sacrificed at various time points after injection. Samples of the brain and other tissues were excised, weighed, and counted. As shown below in Table III, the ratios at 4 hours are consistent with the regional distribution pattern of central cholinergic neurons. […] | ^a N = 5 per group. Mice (CD1) weighed 19-21 g. Concentrations are | normalized to a 20 g mouse. […] | prior to i.v. tracer injection; all amimals were killed 4 h after tracer | injection. Controls received an equal volume of vehicle. In vivo

Assay in data set [8]: as above
It is filed as in vivo, CD-1 mice. The settings on record: mouse, iv, 10 uCi, normalized to a 20 g mouse. On the procedure: as §1

Data set [9] deals with vesicular sequestration of acetylcholine. The settings on record: cited from earlier work.
Where [10] appears, read: ± S.D., normalized to a 25 g mouse.
The mark [11] stands for this setting: Blocked: (±)-vesamicol 0.53 mg/kg, ip, 10 min prior, 4 h after i.v. tracer.
[12] abbreviates: Control, 4 h after i.v. injection.
Setting [13] is: pretreatment with cold (±)-vesamicol 0.53 mg/kg, ip.

Turning to `O[C@@H]1Cc2cccc([125I])c2C[C@H]1N1CCC(c2ccccc2)CC1` [[^125 I]-(-)-IBVM], the “Neuronal specificity in cortex and striatum” value in data set [1] (4-24 h, 4 h activity of (+)-enantiomer as estimate of non-neuronal binding) is reported as > 95%. In addition, in [1] (4 to 24 h, cerebellar concentration as approximation of non-neuronal binding), the “Specific neuronal binding in cortex and striatum” value is > 95%. Further, in [1] (4 to 24 hours following injection), the “Radioactivity in cerebral cortex and striatum over time (in words)” value is “remains at a high and fairly constant level”. In addition, the “Initial striatal uptake of the two enantiomers (in words)” value in data set [1] (mouse striatum) is recorded as “nearly identical initial striatal uptake”. Further, the “Physiological activity versus the other enantiomer (in words)” value in [2] is “more physiologically active than the positive”. For the same compound, the “Concentration ratio [L. atrium]/[L. ventricle]” value in data set [3] is listed as 5.5. For the same compound, the “Concentration ratio [cortex]/[blood]” value in [3] came out at 6.2. For the same compound, in [3], the “Concentration ratio [cortex]/[cerebellum]” value was 11.1. The “Concentration ratio [striatum]/[cerebellum]” value in data set [3] is reported as 27.2. For the same compound, the “% of dose injected, whole brain” value in [3] (normalized to a 25 g mouse) is recorded as 1.03 ± .07 % OF DOSE INJECTED. Also, in data set [3] (setting [10]), the “Concentration, cerebral cortex” value is on record as 2.56 ± .21 % DOSE/G. Also, in data set [4] (pretreatment with unlabeled (-)-vesamicol hydrochloride 605 μg/kg, 10 min prior to tracer), the “Lowering of 4 hour striatal and cortical accumulation” value amounted to 65%. Further, the “Accumulation in striatum by autoradiography (in words)” value in data set [5] was “selective accumulation of tracer in the striatum”. The tissue uptake at 4 h in [6] (cerebellum) came to 0.23 ± 0.04 %ID/g; in data set [6] (striatum) it was 6.26 ± 0.46 %ID/g; in data set [8] (blood, Blocked: (±)-vesamicol 0.53 mg/kg, ip, 10 min prior, 4 h after i.v. tracer, read-out: Concentration, blood), 0.45 ± 0.1 %ID/g; in [8] (blood, Control, 4 h after i.v. injection, read-out: Concentration, blood) it was 1.01 ± 0.7 %ID/g; in [8] (cerebellum, Blocked: (±)-vesamicol 0.53 mg/kg, ip, 10 min prior, 4 h after i.v. tracer, read-out: Concentration, cerebellum) it was 0.24 ± 0.1 %ID/g; in [8] (cerebellum, Control, 4 h after i.v. injection, read-out: Concentration, cerebellum), 0.26 ± 0.06 %ID/g. For the same compound, the tissue uptake at 4 h came out at 0.69 ± 0.13 %ID/g in data set [8] (cortex, Blocked: (±)-vesamicol 0.53 mg/kg, ip, 10 min prior, 4 h after i.v. tracer, read-out: Concentration, cortex); 1.46 ± 0.25 %ID/g in data set [8] (cortex, Control, 4 h after i.v. injection, read-out: Concentration, cortex); 1.97 ± 0.35 %ID/g in data set [8] (striatum, Blocked: (±)-vesamicol 0.53 mg/kg, ip, 10 min prior, 4 h after i.v. tracer, read-out: Concentration, striatum); 4.12 ± 0.65 %ID/g in data set [8] (striatum, Control, 4 h after i.v. injection, read-out: Concentration, striatum). The results for the Tissue ratio cortex/cerebellum in data set [7] (setting [11]) and in data set [7] (setting [12]) were 2.9 and 5.6, respectively. Further, the Tissue ratio striatum/cerebellum worked out at 8.2 in data set [7] (setting [11]) and 15.8 in data set [7] (setting [12]). In addition, the “Change of cerebellum accumulation of radioactivity” value in [7] (setting [13]) is -8%. Further, in [7] (setting [13]), the “Change of striatal and cortical accumulation of radioactivity” value is given as -53%.

On to `O[C@@H]1Cc2cccc([125I])c2C[C@H]1N1CCC(c2ccccc2)CC1` (relative stereo) [[^125 I]-(±)-IBVM, (±)-trans-2-hydroxy-5-iodo-3-(4-phenylpiperidino)tetralin], for which, in data set [3], the “Concentration ratio [L. atrium]/[L. ventricle]” value is reported as 4.7, the “Concentration ratio [cortex]/[blood]” value is 2.3, the “Concentration ratio [cortex]/[cerebellum]” value was 5.9 and the “Concentration ratio [striatum]/[cerebellum]” value is given as 16.5. The “% of dose injected, whole brain” value in [3] (normalized to a 25 g mouse) is listed as 0.56 ± .07 % OF DOSE INJECTED. For the same compound, in data set [3] (setting [10]), the “Concentration, cerebellum” value is 0.20 ± .04 % DOSE/G; the “Concentration, cerebral cortex” value is recorded as 1.17 ± .20 % DOSE/G; the “Concentration, striatum” value was 3.29 ± .52 % DOSE/G.

As for `O[C@H]1Cc2cccc([125I])c2C[C@@H]1N1CCC(c2ccccc2)CC1` [[^125 I]-(+)-IBVM], in data set [1] (mouse striatum), the “Initial striatal uptake of the two enantiomers (in words)” value is given as “nearly identical initial striatal uptake” and the “Striatal washout (in words)” value was “rapidly washes out of the striatum”. For the same compound, in [1] (mouse striatum, within 4 hours), the “Striatal level within 4 hours (in words)” value is “nearly absent from this tissue”. For the same compound, in [3], the “Concentration ratio [L. atrium]/[L. ventricle]” value was found to be 0.9, the “Concentration ratio [cortex]/[blood]” value was 0.3, the “Concentration ratio [cortex]/[cerebellum]” value is 2.0 and the “Concentration ratio [striatum]/[cerebellum]” value turned out to be 4.3. Also, the “% of dose injected, whole brain” value in [3] (normalized to a 25 g mouse) was 0.06 ± .01 % OF DOSE INJECTED. The tissue uptake at 4 h in data set [6] (cerebellum) was 0.06 ± 0.01 %ID/g. The compound further gave a tissue uptake at 4 h in data set [6] (cerebral cortex) of 0.12 ± 0.01 %ID/g. In [6] (striatum), this compound showed a tissue uptake at 4 h of 0.26 ± 0.04 %ID/g.

As to (-)-vesamicol [reference compound], in data set [4] (doses larger than 605 μg/kg), the “Toxicity limitation of dose (in words)” value is given as “larger doses of (-)-vesamicol could not be injected due to toxicity limitations”. Also, the “Potency relative to (+)-vesamicol” value in data set [9] (enantioselectivity versus (+)-vesamicol) is 25 times more potent.

Take `O[C@@H]1CCCC[C@H]1N1CCC(c2ccccc2)CC1` (relative stereo) [Vesamicol, trans-2-(4-phenylpiperidino)-cyclohexanol]: the “Inhibition of vesicular sequestration of acetylcholine (in words)” value in data set [9] was “potent inhibitor of the vesicular sequestration of acetylcholine”.
